IC50 data for 28 compounds are collected here from US6683103B2, “Sulfonamides for treatment of endothelin-mediated disorders” (Texas Biotechnology Corporation, priority 1997, dated 2004).

Where two headings read alike, the source gives them in different places.

One test deals with T1, human ETB receptor (Homo sapiens, UniProt P24530).
T1 construct: expressed in transfected cells; host or cells: COS7 cells
T1 sequence (P24530 27-442): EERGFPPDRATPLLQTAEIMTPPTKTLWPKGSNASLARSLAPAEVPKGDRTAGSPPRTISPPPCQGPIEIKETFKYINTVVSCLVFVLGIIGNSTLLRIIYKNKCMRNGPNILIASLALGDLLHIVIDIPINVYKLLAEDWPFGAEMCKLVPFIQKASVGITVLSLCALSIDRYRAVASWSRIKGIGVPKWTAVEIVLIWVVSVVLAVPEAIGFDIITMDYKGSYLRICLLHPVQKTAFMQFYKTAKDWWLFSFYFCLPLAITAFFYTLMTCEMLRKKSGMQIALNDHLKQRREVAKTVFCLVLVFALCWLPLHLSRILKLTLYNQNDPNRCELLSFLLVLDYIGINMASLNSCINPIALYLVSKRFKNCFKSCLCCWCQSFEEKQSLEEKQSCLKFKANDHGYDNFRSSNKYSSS
The test can be described thus: Binding Test #2: inhibition of 125I-ET-1 binding to ETB receptors (transfected COS7 cell membranes). The method, boiled down: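 Competition with 125I-ET-1 for binding to membranes from COS7 cells transfected with human ETB receptor, used at 1 μg/50 μl binding buffer. Membranes prepared in HEPES pH 7.4 with aprotinin, including a DNase/MnCl2 step at 37 °C for 30 min.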

The next test concerns the target T2, human ETA receptors (Homo sapiens, UniProt P25101).
T2 construct: endogenous in cells; host or cells: TE 671 cells (ATCC HTB 139)
T2 sequence (P25101 21-427): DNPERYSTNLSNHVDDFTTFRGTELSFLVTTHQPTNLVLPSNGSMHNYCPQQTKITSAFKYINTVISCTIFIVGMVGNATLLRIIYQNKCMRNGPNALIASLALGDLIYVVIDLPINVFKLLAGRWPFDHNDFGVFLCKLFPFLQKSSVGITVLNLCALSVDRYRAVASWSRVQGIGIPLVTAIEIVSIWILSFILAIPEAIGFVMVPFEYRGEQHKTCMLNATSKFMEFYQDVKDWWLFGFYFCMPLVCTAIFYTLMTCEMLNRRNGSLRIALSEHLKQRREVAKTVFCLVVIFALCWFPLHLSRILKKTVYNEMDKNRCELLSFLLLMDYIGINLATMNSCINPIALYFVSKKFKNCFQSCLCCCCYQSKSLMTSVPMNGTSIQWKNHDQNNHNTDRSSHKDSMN
Nature of the test: Binding Test #1: inhibition of 125I-ET-1 binding to ETA receptors (TE 671 cell membranes). As to conditions: read-out: ETA. The method, boiled down:
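Radioligand competition in triplicate: ¹²⁵I-endothelin-1 displaced by test compound (1 nM–100 μM final) from ETA-bearing TE 671 cell membranes in HEPES pH 7.4 binding buffer with NaCl, MgCl2 and bacitracin. Incubation 16–18 h at 4 °C (or at 24 °C); 80 nM ET-1 defines nonspecific binding; pellet radioactivity gives percent inhibition.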

[1] abbreviates: Table 1, † incubation at 24° C., read-out: ETB.
[2] abbreviates: Table 1, † incubation at 24° C.
The mark [3] stands for this setting: Table 1, incubation at 4° C., read-out: ETB.
Setting [4] is: Table 2, incubation at 4° C., read-out: ETB.

`COC(=O)c1ccc(-c2ccc(S(=O)(=O)Nc3onc(C)c3Br)s2)cc1` [N-(4-bromo-3-methyl-5-isoxazolyl)-5-(4-methyoxycarbonylphenyl)thiophene-2-sulfonamide]: the IC50 at human ETB receptor (setting [1]) is 17000 nM; on human ETA receptors (setting [2]) it was > 100000 nM.
For `Cc1ccc(NC(=O)c2ccc(S(=O)(=O)Nc3onc(C)c3Br)s2)cc1` [N-(4-bromo-3-methyl-5-isoxazolyl)-5-(4-tolyl)aminocarbonyl)thiophene-2-sulfonamide] the same measures were 8600 nM and 28000 nM.
In the case of `Cc1noc(NS(=O)(=O)c2ccc(-c3ccc(C(C)C)cc3)s2)c1Br` [N-(4-bromo-3-methyl-5-isoxazolyl)-5-(4′-isopropylphenyl))thiophene-2-sulfonamide], the IC50 at human ETB receptor (setting [3]) came to 300 nM; on human ETA receptors (Table 1, incubation at 4° C.), 1600 nM.
For the compound `CCCc1ccc(-c2ccc(S(=O)(=O)Nc3onc(C)c3Br)s2)cc1` [N-(4-bromo-3-methyl-5-isoxazolyl)-5-(4′-propylphenyl))thiophene-2-sulfonamide], the IC50 amounted to 510 nM at human ETB receptor (setting [3]) and 5600 nM at human ETA receptors (Table 1, incubation at 4° C.).
`CCc1ccc(-c2ccc(S(=O)(=O)Nc3onc(C)c3Br)s2)s1` [N-(4-bromo-3-methyl-5-isoxazolyl)-5-(5-ethylthien-2-yl)thiophene-2-sulfonamide]: the IC50 at human ETB receptor (setting [1]) was found to be 7700 nM; at human ETA receptors (setting [2]) it was 24000 nM.
With `Cc1noc(NS(=O)(=O)c2ccc(Sc3ccccc3)o2)c1Br` [N-(4-bromo-3-methyl-5-isoxazolyl)-5-(phenthio)furan-2-sulfonamide], the IC50 at human ETB receptor (setting [3]) turned out to be 7000 nM; on human ETA receptors (Table 1, incubation at 4° C.), 5000 nM.
As for `Cc1noc(NS(=O)(=O)c2ccc(-c3cc(C(F)(F)F)cc(C(F)(F)F)c3)s2)c1Br` [N-(4-bromo-3-methyl-5-isoxazolyl)-5-[3,5-bis(triflouromethyl)phenyl]thiophene-2-sulfonamide], the IC50 on human ETB receptor (setting [3]) turned out to be 12000 nM; at human ETB receptor (setting [1]), 15500 nM; on human ETA receptors (Table 1, incubation at 4° C.), 794 nM; at human ETA receptors (setting [2]), 5900 nM.
With `Cc1noc(NS(=O)(=O)c2ccc(-c3ccc(C(F)(F)F)cc3)s2)c1Br` [N-(4-bromo-3-methyl-5-isoxazolyl)-5-[4-(trifluoromethyl)phenyl]thiophene-2-sulfonamide], the IC50 was 83.5 nM at human ETB receptor (setting [3]); 282 nM on human ETB receptor (setting [1]); 6390 nM on human ETA receptors (Table 1, incubation at 4° C.); 6310 nM on human ETA receptors (setting [2]).
Regarding `Cc1noc(NS(=O)(=O)c2ccc(Br)s2)c1Br` [N-(4-bromo-3-methyl-5-isoxazolyl)-5-bromothiophene-2-sulfonamide], the IC50 turned out to be 2260 nM on human ETB receptor (setting [3]) and 314 nM on human ETA receptors (Table 1, incubation at 4° C.).
Take `Cc1noc(NS(=O)(=O)c2ccc(-c3ccccc3)o2)c1Br` [N-(4-bromo-3-methyl-5-isoxazolyl)-5-phenylfuran-2-sulfonamide]: the IC50 at human ETB receptor (setting [3]) was determined as 2430 nM; on human ETA receptors (Table 1, incubation at 4° C.), 857 nM.
`Cc1noc(NS(=O)(=O)c2ccc(-c3ccccc3)s2)c1Br` [N-(4-bromo-3-methyl-5-isoxazolyl)-5-phenylthiophene-2-sulfonamide]: the IC50 at human ETB receptor (setting [3]) amounted to 417 nM; at human ETB receptor (setting [1]) it was 2400 nM; on human ETA receptors (Table 1, incubation at 4° C.), 3530 nM; on human ETA receptors (setting [2]) it was 36600 nM.
Consider `Cc1noc(NS(=O)(=O)c2ccco2)c1Br` [N-(4-bromo-3-methyl-5-isoxazolyl)furan-2-sulfonamide], for which the IC50 is 88100 nM on human ETB receptor (setting [3]) and 750 nM on human ETA receptors (Table 1, incubation at 4° C.).
For the compound `Cc1noc(NS(=O)(=O)c2ccsc2)c1Br` [N-(4-bromo-3-methyl-5-isoxazolyl)thiophene-3-sulfonamide], the IC50 stood at 23400 nM on human ETB receptor (setting [3]) and 135 nM at human ETA receptors (Table 1, incubation at 4° C.).
Take `Cc1onc(NS(=O)(=O)c2ccc(-c3ccccc3)cc2)c1Br` [N-(4-bromo-5-methyl-3-isoxazolyl)-4-biphenylsulfonamide]: the IC50 at human ETB receptor (setting [4]) is 290 ± 20 nM; at human ETB receptor (Table 2, † incubation at 24° C., read-out: ETB), 1780 nM; at human ETA receptors (Table 2, incubation at 4° C.), 6400 ± 2000 nM; on human ETA receptors (Table 2, † incubation at 24° C.) it was 49000 nM.
As to `Cc1onc(NS(=O)(=O)c2cccs2)c1Br` [N-(4-bromo-5-methyl-3-isoxazolyl)thiophene-2-sulfonamide], the IC50 on human ETB receptor (setting [3]) amounted to 27300 nM; at human ETA receptors (Table 1, incubation at 4° C.), 211 nM.
Take `Cc1cc(C)c(NC(=O)c2sccc2S(=O)(=O)Nc2onc(C)c2Cl)c(C)c1` [N-(4-chloro-3-methyl-5-isoxazolyl)-2-(2,4,6-trimethylphenylaminocarbonyl)thiophene-3-sulfonamide]: the IC50 at human ETB receptor (setting [1]) was determined as 8270 nM; on human ETA receptors (setting [2]), 0.626 nM.
For `Cc1ccc(CC(=O)c2sccc2S(=O)(=O)Nc2onc(C)c2Cl)c(C)c1` [N-(4-chloro-3-methyl-5-isoxazolyl)-2-(2,4-dimethylphenylacetyl)thiophene-3-sulfonamide] the same measures were 4800 nM and 0.4 nM.
For `COc1cc(NC(=O)c2sccc2S(=O)(=O)Nc2onc(C)c2Cl)c(C(N)=O)cc1OC` [N-(4-chloro-3-methyl-5-isoxazolyl)-2-(2-carboxamido-4,5-dimethoxyphenylaminocarbonyl)thiophene-3-sulfonamide] the same measures were 61000 nM and 11 nM.
Taken in the same sequence, the figures for `CC(=O)OCc1c(C)cc(C)c(NC(=O)c2sccc2S(=O)(=O)Nc2onc(C)c2Cl)c1C` [N-(4-chloro-3-methyl-5-isoxazolyl)-2-(3-acetoxymethyl-2,4,6-trimethylphenylaminocarbonyl)thiophene-3-sulfonamide] were > 100000 nM and 0.6 nM.
As for `Cc1cc(C)c(NC(=O)c2sccc2S(=O)(=O)Nc2onc(C)c2Cl)c(C)c1CC(=O)O` [N-(4-chloro-3-methyl-5-isoxazolyl)-2-(3-carboxymethyl-2,4,6-trimethylphenylaminocarbonyl)thiophene-3-sulfonamide], the IC50 on human ETB receptor (setting [1]) was > 100000 nM; on human ETA receptors (setting [2]), 1.5 nM.
As to `Cc1noc(NS(=O)(=O)c2ccsc2C(=O)OCCc2ccc3c(c2)OCO3)c1Cl` [N-(4-chloro-3-methyl-5-isoxazolyl)-2-[2-(3,4-methylenedioxyphenyl)ethoxycarbonyl-3-sulfonamide], the IC50 on human ETB receptor (setting [1]) amounted to 6200 nM; at human ETA receptors (setting [2]), 230 nM.
On to `COc1cc(C#N)c(NC(=O)c2sccc2S(=O)(=O)Nc2onc(C)c2Cl)c(OC)c1OC` [N-(4-chloro-3-methyl-5-isoxazolyl)-2-[(2,3,4-trimethoxy-6-cyano)phenylaminocarbonyl]thiophene-3-sulfonamide], for which the values for the IC50 at human ETB receptor (setting [1]) and on human ETA receptors (setting [2]) were 12500 nM and 0.169 nM, respectively.
As for `Cc1ccc(NC(=O)c2c(S(=O)(=O)Nc3onc(C)c3Cl)c3ccccc3n2C)cc1` [N-(4-chloro-3-methyl-5-isoxazolyl)-2-[(4-tolyl)aminocarbonyl]-1-methylindole-3-sulfonamide], the IC50 was 14700 nM at human ETB receptor (setting [1]) and 31300 nM on human ETA receptors (setting [2]).
Taken in the same sequence, the figures for `Cc1noc(NS(=O)(=O)c2ccsc2CC2(c3ccc4c(c3)OCO4)OCCO2)c1Cl` [N-(4-chloro-3-methyl-5-isoxazolyl)-2-[β,β-(ethylenedioxy)-3,4-(methylenedioxy)phenethyl]thiophene-3-sulfonamide] were 2090 nM and 128 nM.
Consider `Cc1noc(NS(=O)(=O)c2ccccc2-c2ccccc2)c1Cl` [N-(4-chloro-3-methyl-5-isoxazolyl)-2-biphenylsulfonamide], for which the IC50 at human ETB receptor (setting [4]) is ~14000 nM; at human ETA receptors (Table 2, incubation at 4° C.), 1.23 nM.
`Cc1noc(NS(=O)(=O)c2cccc(-c3ccccc3)c2)c1Cl` [N-(4-chloro-3-methyl-5-isoxazolyl)-3-biphenylsulfonamide]: the IC50 on human ETB receptor (setting [4]) was 793 nM; at human ETB receptor (read-out: IC50 for ETB receptors), ~793 nM; on human ETA receptors (Table 2, incubation at 4° C.) it was > 30 nM.
For the compound `Cc1noc(NS(=O)(=O)c2ccc(-c3ccccc3)cc2)c1Cl` [N-(4-chloro-3-methyl-5-isoxazolyl)-4-biphenylsulfonamide], the IC50 on human ETB receptor (setting [4]) was determined as 290 ± 100 nM; at human ETA receptors (Table 2, incubation at 4° C.) it was 4930 ± 3000 nM.
For `CCc1ccc(-c2ccc(S(=O)(=O)Nc3onc(C)c3Cl)s2)s1` [N-(4-chloro-3-methyl-5-isoxazolyl)-5-(5-ethylthien-2-yl)thiophene-2-sulfonamide], the IC50 on human ETB receptor (setting [1]) came to 710 nM; on human ETA receptors (setting [2]) it was 12000 nM.
